# Assays:
# Type in all cases: functional
# [1] = test system: Staphylococcus epidermidis; assay: Antimicrobial activity against methicillin-susceptible Staphylococcus epidermidis clinical isolate incubated for 16 hrs by CLSI based agar dilution method
# [2] = test system: Staphylococcus epidermidis; assay: Antimicrobial activity against methicillin-resistant Staphylococcus epidermidis clinical isolate incubated for 16 hrs by CLSI based agar dilution method
# [3] = test system: Staphylococcus aureus; assay: Antimicrobial activity against methicillin-susceptible Staphylococcus aureus clinical isolate incubated for 16 hrs by CLSI based agar dilution method
# [4] = test system: Staphylococcus aureus; assay: Antimicrobial activity against methicillin-resistant Staphylococcus aureus clinical isolate incubated for 16 hrs by CLSI based agar dilution method
# [5] = test system: Escherichia coli; assay: Antimicrobial activity against Escherichia coli ATCC 700603 incubated for 16 hrs by CLSI-based agar dilution method; conditions: ATCC 700603, 16 h
# [6] = test system: Klebsiella pneumoniae; assay: Antimicrobial activity against Klebsiella pneumoniae ATCC 29522 incubated for 16 hrs by CLSI-based agar dilution method; conditions: ATCC 29522, 16 h
# [7] = test system: Staphylococcus aureus; assay: Antimicrobial activity against Staphylococcus aureus ATCC 25923 incubated for 18 to 24 hrs
# [8] = test system: Staphylococcus aureus; assay: Antimicrobial activity against methicillin-resistant Staphylococcus aureus ATCC 12-1 incubated for 18 to 24 hrs
# [9] = test system: Staphylococcus epidermidis; assay: Antimicrobial activity against methicillin-resistant Staphylococcus epidermidis 12-1 incubated for 18 to 24 hrs
# [10] = test system: Escherichia coli; assay: Antimicrobial activity against Escherichia coli ATCC 25922 incubated for 18 to 24 hrs
# [11] = test system: Pseudomonas aeruginosa; assay: Antimicrobial activity against Pseudomonas aeruginosa ATCC 12-12 incubated for 18 to 24 hrs
# [12] = test system: Escherichia coli; assay: Antimicrobial activity against ESBL non-producing Escherichia coli ATCC 25922
# [13] = test system: Klebsiella pneumoniae; assay: Antimicrobial activity against ESBL-producing Klebsiella pneumoniae ATCC 700603
# [14] = test system: Acinetobacter calcoaceticus; assay: Antimicrobial activity against Acinetobacter calcoaceticus ATCC 19606
# [15] = test system: Enterobacter cloacae; assay: Antimicrobial activity against Enterobacter cloacae ATCC 43560
# [16] = test system: Pseudomonas aeruginosa; assay: Antimicrobial activity against Pseudomonas aeruginosa ATCC 27853
# [17] = test system: Escherichia coli; assay: Antibacterial activity against Escherichia coli NCDC 134 by single disk method
# [18] = test system: Pseudomonas aeruginosa; assay: Antibacterial activity against Pseudomonas aeruginosa NCDC 105 by single disk method
# [19] = test system: Bacillus subtilis; assay: Antibacterial activity against Bacillus subtilis NCDC 71 by single disk method
# [20] = test system: Paenibacillus polymyxa; assay: Antibacterial activity against Paenibacillus polymyxa NCDC 64 by single disk method
# [21] = test system: Staphylococcus aureus; assay: Antibacterial activity against Staphylococcus aureus NCDC 110 by single disk method
# [22] = test system: Mus musculus; assay: Analgesic activity in Swiss albino mouse assessed as acetic acid-induced writhing number at 50 mg/kg pretreated for 30 mins followed by acetic acid challenge and measured after 5 to 15 mins (reference value: 30.8 +/- 0.37)
# [23] = test system: Metaphire posthuma; assay: Anthelmintic activity against Pheretima posthuma assessed as mean paralysing time at 200 mg/ml
Structure (SMILES),MIC [1] [µg/mL],MIC [2] [µg/mL],MIC [3] [µg/mL],MIC [5] [µg/mL],MIC [6] [µg/mL],MIC [12] [µM],MIC [13] [µM],MIC [14] [µM],MIC [15] [µM],MIC [16] [µM],further results
O=C(O)c1cn(C2CC2)c2cc(N3CCN(CC(O)Cn4cc([N+](=O)[O-])nc4Cl)CC3)c(F)cc2c1=O (configuration not stated),2,2,4,16,> 32,,,,,,MIC [4]: 32 µg/mL
CO/N=C1\CCN(c2c(F)cc3c(=O)c(C(=O)O)cn(C4CC4)c3c2OC)CC1NC(=O)CN (configuration not stated),,,,,,,,,,,MIC [7]: 0.25 µg/mL; MIC [8]: 32 µg/mL; MIC [9]: 32 µg/mL; MIC [10]: 4 µg/mL; MIC [11]: 32 µg/mL
CCn1cc(C(=O)O)c(=O)c2cc(F)c(N3CCN(CC(O)Cn4cc([N+](=O)[O-])nc4Cl)CC3)c(OC)c21 (configuration not stated),32,> 32,> 32,> 32,> 32,,,,,,
COc1cc(OC)cc(-c2nn(CN3CCN(c4cc5c(cc4F)c(=O)c(C(=O)O)cn5[C@@H]4C[C@@H]4F)CC3)c(=S)n2-c2ccccc2)c1,,,,,,≤ 0.04,1.48,1.48,5.93,0.09,
O=C(O)c1cn([C@@H]2C[C@@H]2F)c2cc(N3CCN(Cn4nc(-c5cc6ccccc6cn5)n(Cc5ccccc5)c4=S)CC3)c(F)cc2c1=O,,,,,,≤ 0.04,1.47,11.8,≤ 0.04,1.47,
O=C(O)c1cn([C@@H]2C[C@@H]2F)c2cc(N3CCN(Cn4nc(-c5ccccn5)n(-c5ccccc5)c4=S)CC3)c(F)cc2c1=O,,,,,,≤ 0.05,1.63,6.5,≤ 0.05,1.63,
COc1c(N2CCN(C(O)Cn3cc([N+](=O)[O-])nc3Cl)CC2)c(F)cc2c(=O)c(C(=O)O)cn(C3CC3)c12 (configuration not stated),0.25,0.03,0.5,4,> 32,,,,,,MIC [4]: 8 µg/mL
O=C(O)c1cn([C@@H]2C[C@@H]2F)c2cc(N3CCN(Cn4nc(-c5cccnc5)n(Cc5ccccc5)c4=S)CC3)c(F)cc2c1=O,,,,,,≤ 0.05,0.4,6.36,≤ 0.05,1.59,
CO/N=C1\CCN(c2c(F)cc3c(=O)c(C(=O)O)cn(C4CC4)c3c2OC)CC1NC(=O)[C@H](C)N (some centres not stated),,,,,,,,,,,MIC [7]: 0.125 µg/mL; MIC [8]: 64 µg/mL; MIC [9]: 32 µg/mL; MIC [10]: 4 µg/mL; MIC [11]: 64 µg/mL
CO/N=C1\CCN(c2c(F)cc3c(=O)c(C(=O)O)cn(C4CC4)c3c2OC)CC1NC(=O)[C@@H](N)C(C)C (some centres not stated),,,,,,,,,,,MIC [7]: 0.25 µg/mL; MIC [8]: 64 µg/mL; MIC [9]: 64 µg/mL; MIC [10]: 4 µg/mL; MIC [11]: 32 µg/mL
COc1c(N2CCN(CC(=O)Nc3nc4c(F)cccc4s3)C(C)C2)c(F)cc2c(=O)c(C(=O)O)cn(C3CC3)c12 (configuration not stated),,,,,,,,,,,MIC [17]: 140 µg/mL; MIC [18]: 50 µg/mL; MIC [19]: 70 µg/mL; MIC [20]: 25 µg/mL; MIC [21]: 15 µg/mL; Activity [22]: 15; Time [23]: 23.6 min
COc1c(N2CCN(CC(O)Cn3cc([N+](=O)[O-])nc3C)C(C)C2)c(F)cc2c(=O)c(C(=O)O)cn(C3CC3)c12 (configuration not stated),1,1,1,8,> 32,,,,,,MIC [4]: 32 µg/mL
COc1c(N2CCN(C[C@H](O)Cn3cc([N+](=O)[O-])nc3C)C(C)C2)c(F)cc2c(=O)c(C(=O)O)cn(C3CC3)c12 (some centres not stated),32,32,32,32,32,,,,,,MIC [4]: 16 µg/mL
COc1c(N2CCCC(N(C)CC(O)Cn3cc([N+](=O)[O-])nc3C)C2)c(F)cc2c(=O)c(C(=O)O)cn(C3CC3)c12 (configuration not stated),0.5,0.125,0.5,4,2,,,,,,MIC [4]: 8 µg/mL
O=C(O)c1cn([C@@H]2C[C@@H]2F)c2cc(N3CCN(Cn4nc(-c5ccccn5)n(Cc5ccccc5)c4=S)CC3)c(F)cc2c1=O,,,,,,≤ 0.05,0.79,≤ 0.05,0.79,0.79,
COc1cc(-c2nn(CN3CCN(c4cc5c(cc4F)c(=O)c(C(=O)O)cn5[C@@H]4C[C@@H]4F)CC3)c(=S)n2-c2ccccc2)cc(OC)c1OC,,,,,,≤ 0.04,1.42,5.68,≤ 0.04,0.71,
COc1ccc(-c2nn(CN3CCN(c4cc5c(cc4F)c(=O)c(C(=O)O)cn5[C@@H]4C[C@@H]4F)CC3)c(=S)n2-c2ccccc2)cc1OC,,,,,,≤ 0.04,2.97,23.7,≤ 0.04,1.48,
